Measured values from the supplement of paper PMC10307832.

What was measured:
Metformin = compound: CN(C)C(=N)NC(=N)N [Metformin]; experiment: relative viability (nuclei count vs DMSO), 5 days (fraction); higher = more cells survive
Summary of the method: (§1)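 In 1536-well plates, lung cancer cell lines rested overnight at 37 °C before five library-drug doses (not always all listed), √10 apart, were pinned onto vehicle-anchored plates. Nuclei were counted with MetaXpress from 4× Hoechst images taken after 5 days without medium change. Viability compares treated-well with vehicle-well nuclei as a median over plates, and plates needed control CV below 25% plus at least one doubling to pass.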

Apatinib = compound: N#CC1(c2ccc(NC(=O)c3cccnc3NCc3ccncc3)cc2)CCCC1 [Apatinib]; experiment: as above
Summary of the method: as §1

NCI-H460
relative viability (Metformin; 31.62 µM): 1.01
relative viability (Metformin; 100 µM): 1
relative viability (Metformin; 316.23 µM): 0.976
relative viability (Metformin; 1000 µM): 1.07
relative viability (Apatinib; 0.08 µM): 0.976
relative viability (Apatinib; 0.253 µM): 0.99
relative viability (Apatinib; 0.8 µM): 0.963
relative viability (Apatinib; 2.53 µM): 0.925
relative viability (Apatinib; 8 µM): 0.93
